Reference: patent publication USRE46943E1, “Radioprotector compounds and methods” (PETER MACCALLUM CANCER INSTITUTE, priority 2010, dated 2018)

What was measured:
[1] = tested on: transformed human keratinocyte cell line (FEP 1811); experiment: Clonogenic survival cell culture assay for cytotoxicity; type: cell-based; settings: Homo sapiens, Keratinocyte, light or radiation study; un-irradiated keratinocytes, one hour drug exposure, colonies counted after eight days; read-out: C50 (concentration of radioprotector that results in 50% clonogenic survival)
Procedure: • i. […] In appropriate cases, tautomers are drawn to illustrate potential hydrogen-bond donating configurations into the minor groove of DNA. • ii. 2-Amino-4-(5′-(4″-methylpiperazin-1″-yl)benzimidazol-2′-yl)aniline was prepared by hydrogenation of 4-(5′-(4″-methylpiperazin-1″-yl)benzimidazol-2′-yl)-2-nitroaniline, using a modification of the method of Kelly et al, Aust. […] 2-Amino-4-(5′-(piperidin-1″-yl)benzimidazol-2′-yl)aniline was prepared by hydrogenation of 2-nitro-4-(5′-(piperidin-1″-yl)benzimidazol-2′-yl)aniline, using a modification of the method of Kelly et al, Aust. […] Ethyl 4-amino-3-nitrobenzenecarboximidate hydrochloride was prepared by reaction of 4-amino-3-nitrobenzonitrile with dry HCl gas in ethanol, using the method of Kelly et al, Aust. […] 5-(4′-Methylpiperazin-1′-yl)-2-nitroaniline was prepared using a modification of the method of Kelly et al, Aust. […] The following chemicals were obtained from the chemical suppliers indicated: 2-furaldehyde (Aldrich), 2-pyridinecarboxaldehyde (Aldrich), 3-fluoropyridine-2-carbaldehyde (Maybridge), 3-trifluoromethylpyridine-2-carboxaldehyde (Apollo Scientific), 6-methyl-2-pyridinecarboxaldehyde (Matrix Scientific), 5-methylpyridine-2-carbonitrile (Apollo Scientific), 4-methyl-2-pyridinecarbonitrile (Aldrich), 4-chloro-2-pyridinecarbonitrile (Aldrich), 4-methoxypicolinonitrile (Combi-Blocks), pyrazinecarbonitrile (Aldrich), 2-quinolinecarbonitrile (Aldrich), 3-isoquinolinecarbonitrile (Aldrich), 1-isoquinolinecarboxylic acid (Aldrich), indazole-3-carboxylic acid (Aldrich), 2-hydroxynicotinic acid (Aldrich), 4-hydroxypiperidine (Aldrich), 1-methylhomopiperazine (Aldrich), 3-hydroxypiperidine (Aldrich), 4-(N-BOC-amino)piperidine (Aldrich), 4-methoxypiperidine (Acros), 4-methyl-3-nitrobenzonitrile (Aldrich), 5-chloro-2-nitroaniline (Aldrich), 2-cyanopyridine (Aldrich), methyl 4-amino-2-methoxybenzoic acid (Aldrich), 4-(trifluoromethyl)-2-pyridinecarbonitrile (Matrix Scientific), cis-2,6-dimethylmorphoiline (Acros), 5-(trifluoromethyl)-2-pyridinecarbonitrile (Advanced Chemical Intermediates) and 5-fluoro-2-pyridinecarbonitrile (Advanced Chemical Intermediates). • ix. […] Melting points were determined using an Electrothermal melting point apparatus, and are uncorrected. […] The abbreviations s for singlet, d for doublet, t for triplet, q for quartet, br for broad and m for muitiplet were used in the assignments of multiplicity. A value approximating the centre of a multiplet is quoted. […] The addition of a few drops of acetic acid to methanol-d4 solutions was used to enhance solubility for the acquisition of ^13C nmr spectra. Mass spectra were recorded on a Micromass Quattro II mass spectrometer and accurate mass analyses were carried out by the School of Chemistry at the University of Melbourne on a Finnigan LTQ-FT model high resolution mass spectrometer. Thin layer chromatography (TLC) was carried out using Merck silica gel 60 F254 aluminium sheets or Merck neutral aluminium oxide 150 F254 sheets. Flash column chromatography was carried out using Ajax silica gel 230-400 mesh. • xi. […] The details are described in detail in Martin et al (4) (the disclosure of which is included herein in its entirety by way of reference), but briefly, mid-log phase monolayer cultures are incubated with various concentrations of the test drugs for one hour, after which the monolayers are washed and dispersed into single cell suspensions using pronase, and finally appropriate numbers of cells are dispensed into Petri dishes. Colonies are counted after eight days incubation. […] The irradiation (with a dose rate of 0.6 Gy per minute) is started 30 minutes after addition of the test drug. After completion of irradiation, incubation of cultures is continued until the total time of exposure to the drug reaches 60 minutes. Cultures are then washed and plated for clonogenic survival as described for the cytotoxicity experiments.

[2] = tested on: transformed human keratinocyte cell line (FEP 1811); experiment: Clonogenic survival cell culture assay for radioprotective activity (12 Gy 137Cs gamma irradiation); type: cell-based; settings: 12 Gy; for DMF10 (dose modification factor at a concentration of 10 microM of radioprotector): 10 microM radioprotector; for DMFm (dose modification factor at maximum protection): DMF=Dp/Dc at survival level Sm; for PF (protection factor = Sm/So): survival at maximum protection vs irradiation only
Description: PF is defined as a ratio of survival at maximum protection Sm and survival after irradiation only So: PF=Sm/So. DMF is defined as a ratio of doses that result in survival level of Sm in the presence Dp and the absence Dc of radioprotector: DMF=Dp/Dc. DMF10 is define in a similar way except that instead of Sm a survival at 10 microM of radioprotector is used.
PF (Protection Factor) is defined as a ratio of survival at maximum protection Sm and survival after irradiation only So:PF=Sm/So. DMF (Dose Modification Factor) is defined as a ratio of doses that result in survival level of Sm in the presence (Dp) and the absence (Dc) of radioprotector: DMF=Dp/Dc. DMF10 is defined in a similar way except that instead of Sm a survival at 10 microM of radioprotector is used.
• i. […] In appropriate cases, tautomers are drawn to illustrate potential hydrogen-bond donating configurations into the minor groove of DNA. • ii. 2-Amino-4-(5′-(4″-methylpiperazin-1″-yl)benzimidazol-2′-yl)aniline was prepared by hydrogenation of 4-(5′-(4″-methylpiperazin-1″-yl)benzimidazol-2′-yl)-2-nitroaniline, using a modification of the method of Kelly et al, Aust. […] 2-Amino-4-(5′-(piperidin-1″-yl)benzimidazol-2′-yl)aniline was prepared by hydrogenation of 2-nitro-4-(5′-(piperidin-1″-yl)benzimidazol-2′-yl)aniline, using a modification of the method of Kelly et al, Aust. […] Ethyl 4-amino-3-nitrobenzenecarboximidate hydrochloride was prepared by reaction of 4-amino-3-nitrobenzonitrile with dry HCl gas in ethanol, using the method of Kelly et al, Aust. […] 5-(4′-Methylpiperazin-1′-yl)-2-nitroaniline was prepared using a modification of the method of Kelly et al, Aust. […] The following chemicals were obtained from the chemical suppliers indicated: 2-furaldehyde (Aldrich), 2-pyridinecarboxaldehyde (Aldrich), 3-fluoropyridine-2-carbaldehyde (Maybridge), 3-trifluoromethylpyridine-2-carboxaldehyde (Apollo Scientific), 6-methyl-2-pyridinecarboxaldehyde (Matrix Scientific), 5-methylpyridine-2-carbonitrile (Apollo Scientific), 4-methyl-2-pyridinecarbonitrile (Aldrich), 4-chloro-2-pyridinecarbonitrile (Aldrich), 4-methoxypicolinonitrile (Combi-Blocks), pyrazinecarbonitrile (Aldrich), 2-quinolinecarbonitrile (Aldrich), 3-isoquinolinecarbonitrile (Aldrich), 1-isoquinolinecarboxylic acid (Aldrich), indazole-3-carboxylic acid (Aldrich), 2-hydroxynicotinic acid (Aldrich), 4-hydroxypiperidine (Aldrich), 1-methylhomopiperazine (Aldrich), 3-hydroxypiperidine (Aldrich), 4-(N-BOC-amino)piperidine (Aldrich), 4-methoxypiperidine (Acros), 4-methyl-3-nitrobenzonitrile (Aldrich), 5-chloro-2-nitroaniline (Aldrich), 2-cyanopyridine (Aldrich), methyl 4-amino-2-methoxybenzoic acid (Aldrich), 4-(trifluoromethyl)-2-pyridinecarbonitrile (Matrix Scientific), cis-2,6-dimethylmorphoiline (Acros), 5-(trifluoromethyl)-2-pyridinecarbonitrile (Advanced Chemical Intermediates) and 5-fluoro-2-pyridinecarbonitrile (Advanced Chemical Intermediates). • ix. […] Melting points were determined using an Electrothermal melting point apparatus, and are uncorrected. […] The abbreviations s for singlet, d for doublet, t for triplet, q for quartet, br for broad and m for muitiplet were used in the assignments of multiplicity. A value approximating the centre of a multiplet is quoted. […] The addition of a few drops of acetic acid to methanol-d4 solutions was used to enhance solubility for the acquisition of ^13C nmr spectra. Mass spectra were recorded on a Micromass Quattro II mass spectrometer and accurate mass analyses were carried out by the School of Chemistry at the University of Melbourne on a Finnigan LTQ-FT model high resolution mass spectrometer. Thin layer chromatography (TLC) was carried out using Merck silica gel 60 F254 aluminium sheets or Merck neutral aluminium oxide 150 F254 sheets. Flash column chromatography was carried out using Ajax silica gel 230-400 mesh. • xi.

Q: Which IC50 [1] does the source give for CN1CCN(c2ccc3nc(-c4ccc5nc(-c6ccco6)[nH]c5c4)[nH]c3c2)CC1 [Example 1, 2-(5′-(5″-(4′″-Methylpiperazin-1′″-yl)benzimidazol-2″-yl)benzimidazol-2′-yl)furan] here?
A: 57.3 µM

Q: And the “DMF10 (dose modification factor at a concentration of 10 microM of radioprotector)” value (“DMF10” for short) [2]?
A: 1.14

Q: And the “DMFm (dose modification factor at maximum protection)” value (“DMFm” below) [2]?
A: 1.37

Q: And the “PF (protection factor = Sm/So)” value [2]?
A: 7.7

Q: And the melting point?
A: 202 to 224 °C (dec.)

Q: Which IC50 [1] does the source give for CN1CCN(c2ccc3nc(-c4ccc5nc(-c6ncccc6F)[nH]c5c4)[nH]c3c2)CC1 [Example 3, 3-Fluoro-2-(5′-(5″-(4′″-methylpiperazin-1′″-yl)benzimidazol-2″-yl)benzimidazol-2′-yl)pyridine] here?
A: 93.1 µM

Q: And the “DMF10” value [2]?
A: 1.40

Q: What about the “DMFm” value [2] of the same compound?
A: 1.80

Q: What about the “PF (protection factor = Sm/So)” value [2] of the same compound?
A: 15.3

Q: What about the melting point of the same compound?
A: 201 to 214 °C

Q: Which IC50 [1] does the source give for CN1CCN(c2ccc3nc(-c4ccc5nc(-c6ncccc6C(F)(F)F)[nH]c5c4)[nH]c3c2)CC1 [Example 4, 2-(5′-(5″-(4′″-Methylpiperazin-1′″-yl)benzimidazol-2″-yl)benzimidazol-2′-yl)-3-trifluoromethylpyridine] here?
A: 190 µM

Q: And the “DMF10” value [2]?
A: 1.41

Q: And the “DMFm” value [2]?
A: 1.99

Q: What about the “PF (protection factor = Sm/So)” value [2] of the same compound?
A: 30.5

Q: What about the melting point of the same compound?
A: 189 to 191 °C

Q: For Cc1ccnc(-c2nc3ccc(-c4nc5ccc(N6CCN(C)CC6)cc5[nH]4)cc3[nH]2)c1 [Example 7, 4-Methyl-2-(5′-(5″-(4′″-methylpiperazin-1′″-yl)benzimidazol-2″-yl)benzimidazol-2′-yl)pyridine], which IC50 [1] is on record?
A: 130 µM

Q: What about the “DMF10” value [2] of the same compound?
A: 2.36

Q: And the “DMFm” value [2]?
A: 2.55

Q: What about the “PF (protection factor = Sm/So)” value [2] of the same compound?
A: 183.8

Q: And the melting point?
A: 200 °C (dec.)

Q: For CN1CCN(c2ccc3nc(-c4ccc5nc(-c6cc(Cl)ccn6)[nH]c5c4)[nH]c3c2)CC1 [Example 8, 4-Chloro-2-(5′-(5″-(4′″-methylpiperazin-1′″-yl)benzimidazol-2″-yl)benzimidazol-2′-yl)pyridine], which IC50 [1] is on record?
A: 80 µM

Q: What about the “DMF10” value [2] of the same compound?
A: 2.12

Q: What about the “DMFm” value [2] of the same compound?
A: 2.20

Q: What about the “PF (protection factor = Sm/So)” value [2] of the same compound?
A: 39.6

Q: And the melting point?
A: 195 °C (dec.)

Q: Which IC50 [1] does the source give for CNc1ccnc(-c2nc3ccc(-c4nc5ccc(N6CCN(C)CC6)cc5[nH]4)cc3[nH]2)c1 [Example 9, 4-Methylamino-2-(5′-(5″-(4′″-methylpiperazin-1′″-yl)benzimidazol-2″-yl)benzimidazol-2′-yl)pyridine] here?
A: 59.9 µM

Q: And the “DMF10” value [2]?
A: 1.14

Q: What about the “DMFm” value [2] of the same compound?
A: 1.55

Q: What about the “PF (protection factor = Sm/So)” value [2] of the same compound?
A: 7.1

Q: What about the melting point of the same compound?
A: 220 °C (dec.)

Q: With CN1CCN(c2ccc3nc(-c4ccc5nc(-c6cc(N(C)C)ccn6)[nH]c5c4)[nH]c3c2)CC1 [Example 10, 4-Dimethylamino-2-(5′-(5″-(4′″-methylpiperazin-1′″-yl)benzimidazol-2″-yl)benzimidazol-2′-yl)pyridine] as the compound, how does the IC50 [1] read?
A: 18.6 µM

Q: What about the “DMF10” value [2] of the same compound?
A: 1.39

Q: What about the “DMFm” value [2] of the same compound?
A: 1.51

Q: And the “PF (protection factor = Sm/So)” value [2]?
A: 10.1

Q: And the melting point?
A: 216 to 220 °C

Q: For COc1ccnc(-c2nc3ccc(-c4nc5ccc(N6CCN(C)CC6)cc5[nH]4)cc3[nH]2)c1 [Example 11, 4-Methoxy-2-(5′-(5″-(4′″-methylpiperazin-1′″-yl)benzimidazol-2″-yl)benzimidazol-2′-yl)pyridine], which IC50 [1] is on record?
A: 53.6 µM

Q: What about the “DMF10” value [2] of the same compound?
A: 1.95

Q: And the “DMFm” value [2]?
A: 2.28

Q: And the “PF (protection factor = Sm/So)” value [2]?
A: 51.4

Q: And the melting point?
A: 190 °C (dec.)

Q: Which IC50 [1] does the source give for CN1CCN(c2ccc3nc(-c4ccc5nc(-c6ccc(F)cn6)[nH]c5c4)[nH]c3c2)CC1 [Example 47, 5-fluoro-2-(5′-(5″-(4′″-methylpiperazin-1″-yl)benzimidazol-2″-yl)benzimidazol-2′-yl)pyridine] here?
A: 538 µM

Q: And the “DMF10” value [2]?
A: 2.20

Q: What about the “DMFm” value [2] of the same compound?
A: 2.46

Q: And the “PF (protection factor = Sm/So)” value [2]?
A: 40.0

Q: Which results are given for C[C@@H]1CN(c2ccc3nc(-c4ccc5nc(-c6ccccn6)[nH]c5c4)[nH]c3c2)C[C@H](C)O1 [Example 52, 2-(5′-(5″-(cis-2′″,6′″-dimethylmorpholino)benzimidazol-2″-yl)benzimidazol-2′-yl)pyridine]?
A: IC50 [1]: 134 µM; DMF10 (dose modification factor at a concentration of 10 microM of radioprotector) [2]: 1.40; DMFm (dose modification factor at maximum protection) [2]: 1.75; PF (protection factor = Sm/So) [2]: 55.9

Q: What does the source list for CN(CCO)c1ccc2[nH]c(-c3ccc4[nH]c(-c5ccccn5)nc4c3)nc2c1 [Example 54, 2-(5′-(5″-(3′″-hydroxyethyl-1′″-methylamino)benzimidazol-2″-yl)benzimidazol-2′-yl)pyridine]?
A: IC50 [1]: 94.3 µM; DMF10 (dose modification factor at a concentration of 10 microM of radioprotector) [2]: 1.15; DMFm (dose modification factor at maximum protection) [2]: 1.87; PF (protection factor = Sm/So) [2]: 20.2
